These results are taken from patent US4788063A, “Drug delivery system” (priority 1984, dated 1988).

Molecules are shown by their SMILES.

In experiment [1] the test system is Whole blood cholinesterase. In words: whole blood cholinesterase after dermal application or intramuscular injection in pigs. The format is in vivo. The settings on record: intramuscular injection, pigs (FIG. 1). The procedure:
(§1) Laboratory animal species used throughout this study consisted of albino guinea pigs of either sex of a local strain, (Dunkin-Hadley origin), weighing between 300-400 g, and female pigs of the large White and Lundrace strain, 8-12 weeks of age, weighing 8-14 kg.
(§2) At 30 minutes prior to dermal application of test solutions, the hair at the test sites was closely clipped. Only animals in which the skin at the test sites appeared grossly normal and was free of bites, scratches or bruises, were selected for the study.
(§3) Treatment solutions for dermal application were freshly prepared and applied to a pre-determined area of a commercially available pad, (micropad dressing 3M No. 1610, U.S. Pat. No. 3,285,245) which in turn was secured to dorsal test-sites by an adhesive bandage, serving at the same time as an occlusive dressing. […] Intervals between bleedings were 2 hours in guinea pigs, and 30 minutes in pigs.
(§4) Cholinesterase Determinations: Whole blood cholinesterase activity was determined by the method of Ellman [G.L. Ellman et al, Biochem. Pharmacol. 7, 83 (1961)], or by that described by Johnson and Russell [C.D. Johnson and R. L. Russell, Anal Biochem 64, 229 (1975)]. Data obtained in experimental animals (guinea pigs and pigs) show a remarkable prolonging of the duration of action of the dermally applied drug when compared with systemic administration.

The subject of experiment [2] is Whole blood cholinesterase. In words: whole blood cholinesterase after dermal application or injection in guinea pigs. The format is in vivo. The conditions noted are these: injection, guinea pigs (FIG. 2). The procedure: as §1, §2, §3, §4
A further experiment deals with memory disorders. The settings on record: SDAT patients, intravenous infusion at a rate of 3.4-14 μg/kg. hr; cited from earlier work.

As for `CNC(=O)Oc1ccc2c(c1)[C@]1(C)CCN(C)[C@@H]1N2C` [physostigmine], the “duration of the effect” value in experiment [1] and in experiment [2] was 2 to 3 h each time. Moreover, the “effect on memory disorders” value with memory disorders was “improvement in memory disorders”.
